The results in this text go back to US10208030B2, “GPR119 agonist compounds” (Mankind Pharma Ltd., priority 2016, dated 2019).

Each structure is given as a SMILES string. Structures can show the parent of a compound that is named as a salt.

The target of the first experiment is T1, hGPR119 (Homo sapiens, UniProt Q8TDV5).
T1 construct: expressed in transfected cells; host or cells: CHO cells (CHO-hGPR119)
T1 sequence (Q8TDV5 1-335): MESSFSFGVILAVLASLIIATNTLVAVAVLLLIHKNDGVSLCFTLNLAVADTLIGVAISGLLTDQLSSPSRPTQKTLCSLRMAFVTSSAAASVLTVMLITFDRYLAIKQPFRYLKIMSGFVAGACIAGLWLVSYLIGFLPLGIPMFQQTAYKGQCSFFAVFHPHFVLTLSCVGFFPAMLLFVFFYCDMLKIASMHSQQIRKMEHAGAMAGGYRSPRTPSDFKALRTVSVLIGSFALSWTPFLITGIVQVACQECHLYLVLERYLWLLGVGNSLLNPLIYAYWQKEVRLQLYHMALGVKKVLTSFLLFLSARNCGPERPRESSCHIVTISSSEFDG
The experiment in a line: In vitro cyclic AMP assay (Cisbio HTRF) in CHO-hGPR119 cells. The conditions noted are these: 1 h, cAMP, 1 μM, 60 min, read-out: Induction (% induction at 1 μM). The experiment is classed as cell-based. As for the experimental part:
cAMP measurements were done using Cisbio dynamic 2 HTRF kit according to the manufacturer's protocol. Briefly, CHO-hGPR119 cells were plated at a cell density of 5000 cells/well/5 μl into a white small volume 384 well plate. The final concentrations of IBMX and DMSO used were 1 mM and 0.5% respectively. Cells were treated with various concentrations of the test compound for 60 min at room temperature. Cells were lysed by buffer containing Anti-cAMP antibody and d2-cAMP reagents and incubated for 1 hour at room temperature. HTRF was measured at 337 nm excitation and emission wavelengths of 665 nm and 620 nm on a microplate reader (Flurostar, BMG Labtech). Graphpad prism software was utilized for EC50 determinations.
In general terms: Time-resolved FRET reads energy transfer from a long-lived donor to a nearby acceptor.
For `CC(C)c1noc(N2CCC([C@@H](C)Oc3nn4c(F)c(-c5ccc(S(C)(=O)=O)cc5)nc4s3)CC2)n1` [Compound 1066, (R)-5-(4-(1-((5-fluoro-6-(4-(methylsulfonyl)phenyl)imidazo[2,1-b][1,3,4]thiadiazol-2-yl)oxy)ethyl)piperidin-1-yl)-3-isopropyl-1,2,4-oxadiazole], the activation at 1 µM stood at 72%.
With `CC(C)c1noc(N2CCC([C@H](C)Oc3nn4cc(-c5cc[n+]([O-])cc5)nc4s3)CC2)n1` [Compound 1068, (S)-4-(2-(1-(1-(3-isopropyl-1,2,4-oxadiazol-5-yl)piperidin-4-yl)ethoxy)imidazo[2,1-b][1,3,4]thiadiazol-6-yl)pyridine 1-oxide], the activation at 1 µM is 59%.
In the case of `CC(Oc1nn2cc(-c3ccc(S(C)(=O)=O)cc3)nc2s1)C1CCN(c2ncc(Cl)cn2)CC1` (stereo not shown) [Compound 1069, 2-(1-(1-(5-chloropyrimidin-2-yl)piperidin-4-yl)ethoxy)-6-(4-(methylsulfonyl)phenyl)imidazo[2,1-b][1,3,4]thiadiazole], the activation at 1 µM came out at 65%.
Consider `CC(C)c1cnc(N2CCC(C(C)Oc3nn4cc(-c5ccc(S(C)(=O)=O)cc5)nc4s3)CC2)nc1` (stereo not shown) [Compound 1070, 2-(1-(1-(5-isopropylpyrimidin-2-yl)piperidin-4-yl)ethoxy)-6-(4-(methylsulfonyl)phenyl)imidazo[2,1-b][1,3,4]thiadiazole], for which the activation at 1 µM amounted to 55%.
In the case of `CC(Oc1nn2cc(-c3ccc(S(C)(=O)=O)cc3)nc2s1)C1CCN(c2nc(C(F)(F)F)no2)CC1` (stereo not shown) [Compound 1073, 2-(1-(1-(3-(trifluoromethyl)-1,2,4-oxadiazol-5-yl)piperidin-4-yl)ethoxy)-6-(4-(methylsulfonyl)phenyl)imidazo[2,1-b][1,3,4]thiadiazole], the activation at 1 µM worked out at 33%.
`CC(C)c1noc(N2CCC(C(C)Oc3nn4cc(-c5cnc(S(C)(=O)=O)nc5)nc4s3)CC2)n1` (stereo not shown) [Compound 1074, 2-(1-(1-(3-isopropyl-1,2,4-oxadiazol-5-yl)piperidin-4-yl)ethoxy)-6-(2-(methylsulfonyl)pyrimidin-5-yl)imidazo[2,1-b][1,3,4]thiadiazole]: the activation at 1 µM was determined as 44%.
For `CC(C)c1noc(N2CCC(C(C)Oc3nn4cc(-c5ccc(Cl)nc5)nc4s3)CC2)n1` (stereo not shown) [Compound 1075, 2-(1-(1-(3-isopropyl-1,2,4-oxadiazol-5-yl)piperidin-4-yl)ethoxy)-6-(6-chloropyridin-3-yl)imidazo[2,1-b][1,3,4]thiadiazole], the activation at 1 µM was 64%.
The same measure, in the same setting: then `C[C@@H](Oc1nn2cc(-c3ccc(S(C)(=O)=O)cc3)nc2s1)C1CCN(c2nc(C(F)(F)F)no2)CC1` [Compound 1076, 2-((R)-1-(1-(3-(trifluoromethyl)-1,2,4-oxadiazol-5-yl)piperidin-4-yl)ethoxy)-6-(4-(methylsulfonyl)phenyl)imidazo[2,1-b][1,3,4]thiadiazole], with 15%; and `C[C@H](Oc1nn2cc(-c3ccc(S(C)(=O)=O)cc3)nc2s1)C1CCN(c2nc(C(F)(F)F)no2)CC1` [Compound 1077, 2-((S)-1-(1-(3-(trifluoromethyl)-1,2,4-oxadiazol-5-yl)piperidin-4-yl)ethoxy)-6-(4-(methylsulfonyl)phenyl)imidazo[2,1-b][1,3,4]thiadiazole], with 33%.
`CC(C)c1noc(N2CCC([C@H](C)Oc3nn4cc(-c5ccc(S(C)(=O)=O)c(F)c5)nc4s3)CC2)n1` [Compound 1078, 2-((S)-1-(1-(3-isopropyl-1,2,4-oxadiazol-5-yl)piperidin-4-yl)ethoxy)-6-(3-fluoro-4-(methylsulfonyl)phenyl)imidazo[2,1-b][1,3,4]thiadiazole]: the activation at 1 µM worked out at 54%.
Regarding `CC(C)c1noc(N2CCC(C(C)Oc3nn4cc(-c5cnc(Cl)cn5)nc4s3)CC2)n1` (stereo not shown) [Compound 1079, 2-(1-(1-(3-isopropyl-1,2,4-oxadiazol-5-yl)piperidin-4-yl)ethoxy)-6-(5-chloropyrazin-2-yl)imidazo[2,1-b][1,3,4]thiadiazole], the activation at 1 µM was 87%.
In the case of `CCCc1cnc(N2CCC([C@H](C)Oc3nn4cc(-c5ccncc5F)nc4s3)CC2)nc1` [Compound 1082, 2-((S)-1-(1-(5-propylpyrimidin-2-yl)piperidin-4-yl)ethoxy)-6-(3-fluoropyridin-4-yl)imidazo[2,1-b][1,3,4]thiadiazole], the activation at 1 µM stood at 80%.
Same read-out and setting: with `C[C@H](Oc1nn2cc(-c3ccc(S(C)(=O)=O)cc3)nc2s1)C1CCN(c2ncc(Cl)cn2)CC1` [Compound 1083, 2-((S)-1-(1-(5-chloropyrimidin-2-yl)piperidin-4-yl)ethoxy)-6-(4-(methylsulfonyl)phenyl)imidazo[2,1-b][1,3,4]thiadiazole] the figure was 77%.
With `CCCc1cnc(N2CCC([C@H](C)Oc3nn4cc(-c5ccc(S(C)(=O)=O)cc5F)nc4s3)CC2)nc1` [Compound 1085, 2-((S)-1-(1-(5-propylpyrimidin-2-yl)piperidin-4-yl)ethoxy)-6-(2-fluoro-4-(methylsulfonyl)phenyl)imidazo[2,1-b][1,3,4]thiadiazole], the activation at 1 µM came to 74%.
As to `CC(C)c1noc(N2CCC(C(C)Oc3nn4cc(-c5ccncc5C(F)(F)F)nc4s3)CC2)n1` (stereo not shown) [Compound 1092, 2-(1-(1-(3-isopropyl-1,2,4-oxadiazol-5-yl)piperidin-4-yl)ethoxy)-6-(3-(trifluoromethyl)pyridin-4-yl)imidazo[2,1-b][1,3,4]thiadiazole], the activation at 1 µM worked out at 25%.
Turning to `CCc1cnc(N2CCC([C@H](C)Oc3nn4cc(-c5ccnc(OC)c5)nc4s3)CC2)nc1` [Compound 1093, 2-((S)-1-(1-(5-ethylpyrimidin-2-yl)piperidin-4-yl)ethoxy)-6-(2-methoxypyridin-4-yl)imidazo[2,1-b][1,3,4]thiadiazole], the activation at 1 µM worked out at 75%.
On the same count and under the same terms, then `CCCc1cnc(N2CCC([C@H](C)Oc3nn4cc(-c5ccnc(OC)c5)nc4s3)CC2)nc1` [Compound 1094, 2-((S)-1-(1-(5-propylpyrimidin-2-yl)piperidin-4-yl)ethoxy)-6-(2-methoxypyridin-4-yl)imidazo[2,1-b][1,3,4]thiadiazole], with 68%.
In the case of `COc1cnccc1-c1cn2nc(OC(C)C3CCN(c4nc(C(C)C)no4)CC3)sc2n1` (stereo not shown) [Compound 1095, 2-(1-(1-(3-isopropyl-1,2,4-oxadiazol-5-yl)piperidin-4-yl)ethoxy)-6-(3-methoxypyridin-4-yl)imidazo[2,1-b][1,3,4]thiadiazole], the activation at 1 µM stood at 8%.
Turning to `C[C@H](Oc1nn2cc(-c3ccc(S(C)(=O)=O)cc3F)nc2s1)C1CCN(c2ncc(C(F)(F)F)cn2)CC1` [Compound 1098, 2-((S)-1-(1-(5-(trifluoromethyl)pyrimidin-2-yl)piperidin-4-yl)ethoxy)-6-(2-fluoro-4-(methylsulfonyl)phenyl)imidazo[2,1-b][1,3,4]thiadiazole], the activation at 1 µM was determined as 68%.
On the same count and under the same terms, with `COc1cc(S(C)(=O)=O)ccc1-c1cn2nc(O[C@@H](C)C3CCN(c4nc(C(C)C)no4)CC3)sc2n1` [Compound 1103, 2-((S)-1-(1-(3-isopropyl-1,2,4-oxadiazol-5-yl)piperidin-4-yl)ethoxy)-6-(2-methoxy-4-(methylsulfonyl)phenyl)imidazo[2,1-b][1,3,4]thiadiazole] the figure was 9%.
Same read-out and setting: with `Cc1nc(S(C)(=O)=O)ccc1-c1cn2nc(O[C@@H](C)C3CCN(c4nc(C(C)C)no4)CC3)sc2n1` [Compound 1104, 2-((S)-1-(1-(3-isopropyl-1,2,4-oxadiazol-5-yl)piperidin-4-yl)ethoxy)-6-(2-methyl-6-(methylsulfonyl)pyridin-3-yl)imidazo[2,1-b][1,3,4]thiadiazole] the figure was 46%; with `CC(C)c1noc(N2CCC([C@@H](C)Oc3nn4cc(-c5ccc(-c6nnn[nH]6)cc5F)nc4s3)CC2)n1` [Compound 1105, 2-((R)-1-(1-(3-isopropyl-1,2,4-oxadiazol-5-yl)piperidin-4-yl)ethoxy)-6-(2-fluoro-4-(1H-tetrazol-5-yl)phenyl)imidazo[2,1-b][1,3,4]thiadiazole hydrochloride], 30%.
Still for that read-out and setting: then `CCOC(=O)N1CCC(C(C)Oc2nn3cc(-c4ccc(S(C)(=O)=O)cc4F)nc3s2)CC1` (stereo not shown) [Compound 1107, Ethyl 4-(1-(6-(2-fluoro-4-(methylsulfonyl)phenyl)imidazo[2,1-b][1,3,4]thiadiazol-2-yloxy)ethyl)piperidine-1-carboxylate], with 67%.
With `CC(Oc1nn2cc(-c3ccc(S(C)(=O)=O)cc3F)nc2s1)C1CCN(C(=O)OC2(C)CC2)CC1` (stereo not shown) [Compound 1110, 1-methylcyclopropyl 4-(1-(6-(2-fluoro-4-(methylsulfonyl)phenyl)imidazo[2,1-b][1,3,4]thiadiazol-2-yloxy)ethyl)piperidine-1-carboxylate], the activation at 1 µM stood at 71%.
For the compound `CC(C)c1noc(N2CCC(C(C)Oc3nn4cc(-c5cncs5)nc4s3)CC2)n1` (stereo not shown) [Compound 1111, 2-(1-(1-(3-isopropyl-1,2,4-oxadiazol-5-yl)piperidin-4-yl)ethoxy)-6-(thiazol-5-yl)imidazo[2,1-b][1,3,4]thiadiazole], the activation at 1 µM amounted to 63%.

The same experiment, now with this note: cAMP, class symbols, legend not given.
As for `CC(C)c1noc(N2CCC([C@@H](C)Oc3nn4c(F)c(-c5ccc(S(C)(=O)=O)cc5)nc4s3)CC2)n1` [Compound 1066, (R)-5-(4-(1-((5-fluoro-6-(4-(methylsulfonyl)phenyl)imidazo[2,1-b][1,3,4]thiadiazol-2-yl)oxy)ethyl)piperidin-1-yl)-3-isopropyl-1,2,4-oxadiazole], the EC50 entry is given as “A+”.
Take `CC(Oc1nn2cc(-c3ccc(S(C)(=O)=O)cc3)nc2s1)C1CCN(c2ncc(Cl)cn2)CC1` (stereo not shown) [Compound 1069, 2-(1-(1-(5-chloropyrimidin-2-yl)piperidin-4-yl)ethoxy)-6-(4-(methylsulfonyl)phenyl)imidazo[2,1-b][1,3,4]thiadiazole]: the EC50 entry was “A+”.
Same read-out and setting: then `CCCc1cnc(N2CCC([C@H](C)Oc3nn4cc(-c5ccc(S(C)(=O)=O)cc5F)nc4s3)CC2)nc1` [Compound 1085, 2-((S)-1-(1-(5-propylpyrimidin-2-yl)piperidin-4-yl)ethoxy)-6-(2-fluoro-4-(methylsulfonyl)phenyl)imidazo[2,1-b][1,3,4]thiadiazole], with “A++”.
